# According to patent US6077680A (The University of Florida, dated 2000):
# Test system: rat brain membrane K channels (primarily Kv1.2)
# Assay: not given
# Assay type: binding
# Settings: not given
Compound,Difference of Free Energy of Binding,IC50 Ratio,"binding affinity for rat brain K channels relative to wild-type ShK toxin, in words",Equipotent Molar Ration (Analog IC50 /ShK IC50) Rat brain,ΔF,increase in relative free energy of binding,Equipotent Molar Ratio (Analog IC50 /ShK IC50),Free Energy Differ. of Binding ΔF
RSCIDTIPKSRCTAPQCKHSMKYRLSFCRKACGTC [T31A],-0.30,0.6,increased affinities,–,–,–,–,–
CC[C@H](C)[C@@H]1NC(=O)[C@@H](NC(=O)[C@H](CO)NC(=O)[C@@H](N)CCCNC(=N)N)CSSC[C@@H](C(=O)O)NC(=O)[C@H]([C@@H](C)O)NC(=O)CNC(=O)[C@@H]2CSSC[C@@H]3NC(=O)[C@H](CCC(N)=O)NC(=O)[C@H](Cc4ccccc4)NC(=O)[C@H](C)NC(=O)[C@H]([C@@H](C)O)NC(=O)[C@H](CSSC[C@H](NC(=O)[C@H](Cc4ccccc4)NC(=O)[C@H](CO)NC(=O)[C@H](CC(C)C)NC(=O)[C@H](CCCNC(=N)N)NC(=O)[C@H](Cc4ccc(O)cc4)NC(=O)[C@H](CCCNC(=N)N)NC(=O)[C@H](CCSC)NC(=O)[C@H](CO)NC(=O)[C@H](Cc4c[nH]cn4)NC(=O)[C@H](CCCCN)NC3=O)C(=O)N[C@@H](CCCNC(=N)N)C(=O)N[C@@H](CCCCN)C(=O)N[C@@H]([C@@H](C)O)C(=O)N2)NC(=O)[C@H](CCCNC(=N)N)NC(=O)[C@H](CO)NC(=O)[C@H](CCCCN)NC(=O)[C@@H]2CCCN2C(=O)[C@H]([C@@H](C)CC)NC(=O)[C@H]([C@@H](C)O)NC(=O)[C@H](CC(=O)O)NC1=O [K22R],–,> 500,–,> 500,> 3.65,–,–,–
CC[C@H](C)[C@@H]1NC(=O)[C@@H](NC(=O)[C@H](CO)NC(=O)[C@@H](N)CCCNC(=N)N)CSSC[C@@H](C(=O)O)NC(=O)[C@H]([C@@H](C)O)NC(=O)CNC(=O)[C@@H]2CSSC[C@@H]3NC(=O)[C@H](CCC(N)=O)NC(=O)[C@H](Cc4ccccc4)NC(=O)[C@H](C)NC(=O)[C@H]([C@@H](C)O)NC(=O)[C@H](CSSC[C@H](NC(=O)[C@H](Cc4ccccc4)NC(=O)[C@H](CO)NC(=O)[C@H](C)NC(=O)[C@H](CCCNC(=N)N)NC(=O)[C@H](Cc4ccc(O)cc4)NC(=O)[C@H](CCCCN)NC(=O)[C@H](CCSC)NC(=O)[C@H](CO)NC(=O)[C@H](Cc4c[nH]cn4)NC(=O)[C@H](CCCCN)NC3=O)C(=O)N[C@@H](CCCNC(=N)N)C(=O)N[C@@H](CCCCN)C(=O)N[C@@H]([C@@H](C)O)C(=O)N2)NC(=O)[C@H](CCCNC(=N)N)NC(=O)[C@H](CO)NC(=O)[C@H](CCCCN)NC(=O)[C@@H]2CCCN2C(=O)[C@H]([C@@H](C)CC)NC(=O)[C@H]([C@@H](C)O)NC(=O)[C@H](CC(=O)O)NC1=O [L25A],0.20,1.4,–,–,–,–,–,–
CC[C@H](C)[C@@H]1NC(=O)[C@@H](NC(=O)[C@H](CO)NC(=O)[C@@H](N)CCCNC(=N)N)CSSC[C@@H](C(=O)O)NC(=O)[C@H]([C@@H](C)O)NC(=O)CNC(=O)[C@@H]2CSSC[C@@H]3NC(=O)[C@H](CCC(N)=O)NC(=O)[C@H](Cc4ccccc4)NC(=O)[C@H](C)NC(=O)[C@H]([C@@H](C)O)NC(=O)[C@H](CSSC[C@H](NC(=O)[C@H](Cc4ccccc4)NC(=O)[C@H](CO)NC(=O)[C@H](CC(C)C)NC(=O)[C@H](CCCNC(=N)N)NC(=O)[C@H](Cc4ccc(O)cc4)NC(=O)[C@H](CCCCN)NC(=O)[C@H](CCSC)NC(=O)[C@H](CO)NC(=O)[C@H](Cc4c[nH]cn4)NC(=O)[C@H](CCCCN)NC3=O)C(=O)N[C@@H](CCCNC(=N)N)C(=O)N[C@@H](CCCCN)C(=O)N[C@@H]([C@@H](C)O)C(=O)N2)NC(=O)[C@H](CCCNC(=N)N)NC(=O)[C@H](CO)NC(=O)[C@H](CCCCN)NC(=O)[C@@H]2CCCN2C(=O)[C@H](C)NC(=O)[C@H]([C@@H](C)O)NC(=O)[C@H](CC(=O)O)NC1=O [I7A],0.96,5.2,–,–,–,approximately 1 kcal/mol,–,–
CC[C@H](C)[C@@H]1NC(=O)[C@@H](NC(=O)[C@H](CO)NC(=O)[C@@H](N)CCCNC(=N)N)CSSC[C@@H](C(=O)O)NC(=O)[C@H]([C@@H](C)O)NC(=O)CNC(=O)[C@@H]2CSSC[C@@H]3NC(=O)[C@H](CCC(N)=O)NC(=O)[C@H](Cc4ccccc4)NC(=O)[C@H](C)NC(=O)[C@H]([C@@H](C)O)NC(=O)[C@H](CSSC[C@H](NC(=O)[C@H](Cc4ccccc4)NC(=O)[C@H](CO)NC(=O)[C@H](CC(C)C)NC(=O)[C@H](CCCNC(=N)N)NC(=O)[C@H](Cc4ccc(O)cc4)NC(=O)[C@H](CCC(=O)O)NC(=O)[C@H](CCSC)NC(=O)[C@H](CO)NC(=O)[C@H](Cc4c[nH]cn4)NC(=O)[C@H](CCCCN)NC3=O)C(=O)N[C@@H](CCCNC(=N)N)C(=O)N[C@@H](CCCCN)C(=O)N[C@@H]([C@@H](C)O)C(=O)N2)NC(=O)[C@H](CCCNC(=N)N)NC(=O)[C@H](CO)NC(=O)[C@H](CCCCN)NC(=O)[C@@H]2CCCN2C(=O)[C@H]([C@@H](C)CC)NC(=O)[C@H]([C@@H](C)O)NC(=O)[C@H](CC(=O)O)NC1=O [K22E],–,–,greatly reduced affinity,–,–,–,726.0,3.86
RSCADTIPKSRCTAAQCKHSMKYRLSFCRKRCGTC [A4 + A15],–,0.5,more potent than the wild-type toxin,–,-0.41,–,0.5,-0.41
RSCIDTIPKSRCTAPQCKHSMKYRLSFCRKTCGAC [T34A],0.0,1.0,–,–,–,–,–,–
RSCIDSTIPKSRCTAAQKHSMKYRASFCRKTCGTC [A15 + A25],–,2.1,–,–,0.43,–,2.1,0.43
RSCIDTIPKSRCTAPQCKHSMKYRLSFCRATCGTC [K30A],0.98,5.3,–,–,–,approximately 1 kcal/mol,–,–
CC[C@H](C)[C@@H]1NC(=O)[C@@H](NC(=O)[C@H](CO)NC(=O)[C@@H](N)CCCNC(=N)N)CSSC[C@@H](C(=O)O)NC(=O)[C@H]([C@@H](C)O)NC(=O)CNC(=O)[C@@H]2CSSC[C@@H]3NC(=O)[C@H](CCC(N)=O)NC(=O)[C@H](Cc4ccccc4)NC(=O)[C@H](C)NC(=O)[C@H]([C@@H](C)O)NC(=O)[C@H](CSSC[C@H](NC(=O)[C@H](Cc4ccccc4)NC(=O)[C@H](CO)NC(=O)[C@H](CC(C)C)NC(=O)[C@H](CCCNC(=N)N)NC(=O)[C@H](Cc4ccc(O)cc4)NC(=O)[C@H](CCCCN)NC(=O)[C@H](CCSC)NC(=O)[C@H](CO)NC(=O)[C@H](Cc4c[nH]cn4)NC(=O)[C@H](CCCCN)NC3=O)C(=O)N[C@@H](CCCNC(=N)N)C(=O)N[C@@H](CCCCN)C(=O)N[C@@H]([C@@H](C)O)C(=O)N2)NC(=O)[C@H](CCCNC(=N)N)NC(=O)[C@H](CO)NC(=O)[C@H](C)NC(=O)[C@@H]2CCCN2C(=O)[C@H]([C@@H](C)CC)NC(=O)[C@H]([C@@H](C)O)NC(=O)[C@H](CC(=O)O)NC1=O [K9A],0.15,1.3,–,–,–,–,–,–
CC[C@H](C)[C@@H]1NC(=O)[C@@H](NC(=O)[C@H](CO)NC(=O)[C@@H](N)CCCNC(=N)N)CSSC[C@@H](C(=O)O)NC(=O)[C@H]([C@@H](C)O)NC(=O)CNC(=O)[C@@H]2CSSC[C@@H]3NC(=O)[C@H](CCC(N)=O)NC(=O)[C@H](Cc4ccccc4)NC(=O)[C@H](C)NC(=O)[C@H]([C@@H](C)O)NC(=O)[C@H](CSSC[C@H](NC(=O)[C@H](Cc4ccccc4)NC(=O)[C@H](CO)NC(=O)[C@H](CC(C)C)NC(=O)[C@H](CCCNC(=N)N)NC(=O)[C@H](Cc4ccc(O)cc4)NC(=O)[C@H](CCCCN)NC(=O)[C@H](CCSC)NC(=O)[C@H](CO)NC(=O)[C@H](CCCCN)NC(=O)[C@H](CCCCN)NC3=O)C(=O)N[C@@H](CCCNC(=N)N)C(=O)N[C@@H](CCCCN)C(=O)N[C@@H]([C@@H](C)O)C(=O)N2)NC(=O)[C@H](CCCNC(=N)N)NC(=O)[C@H](CO)NC(=O)[C@H](CCCCN)NC(=O)[C@@H]2CCCN2C(=O)[C@H]([C@@H](C)CC)NC(=O)[C@H]([C@@H](C)O)NC(=O)[C@H](CC(=O)O)NC1=O [H19K],–,2.6,slightly reduced IC50 ratio,–,0.56,–,2.6,0.56

# Same assay, conditions: read-out: IC50 Rat Brain 125I-CTX
row,Compound,IC50 [nM]
1,CC[C@H](C)[C@@H]1NC(=O)[C@@H](NC(=O)[C@H](CO)NC(=O)[C@@H](N)CCCNC(=N)N)CSSC[C@@H](C(=O)O)NC(=O)[C@H]([C@@H](C)O)NC(=O)CNC(=O)[C@@H]2CSSC[C@@H]3NC(=O)[C@H](CCC(N)=O)NC(=O)[C@H](Cc4ccccc4)NC(=O)[C@H](C)NC(=O)[C@H]([C@@H](C)O)NC(=O)[C@H](CSSC[C@H](NC(=O)[C@H](Cc4ccccc4)NC(=O)[C@H](CO)NC(=O)[C@H](CC(C)C)NC(=O)[C@H](CCCNC(=N)N)NC(=O)[C@H](Cc4ccc(O)cc4)NC(=O)[C@H](CCCNC(=N)N)NC(=O)[C@H](CCSC)NC(=O)[C@H](CO)NC(=O)[C@H](Cc4c[nH]cn4)NC(=O)[C@H](CCCCN)NC3=O)C(=O)N[C@@H](CCCNC(=N)N)C(=O)N[C@@H](CCCCN)C(=O)N[C@@H]([C@@H](C)O)C(=O)N2)NC(=O)[C@H](CCCNC(=N)N)NC(=O)[C@H](CO)NC(=O)[C@H](CCCCN)NC(=O)[C@@H]2CCCN2C(=O)[C@H]([C@@H](C)CC)NC(=O)[C@H]([C@@H](C)O)NC(=O)[C@H](CC(=O)O)NC1=O [K22R],2000
2,CC[C@H](C)[C@@H]1NC(=O)[C@@H](NC(=O)[C@H](CO)NC(=O)[C@@H](N)CCCNC(=N)N)CSSC[C@@H](C(=O)O)NC(=O)[C@H]([C@@H](C)O)NC(=O)CNC(=O)[C@@H]2CSSC[C@@H]3NC(=O)[C@H](CCC(N)=O)NC(=O)[C@H](Cc4ccccc4)NC(=O)[C@H](C)NC(=O)[C@H]([C@@H](C)O)NC(=O)[C@H](CSSC[C@H](NC(=O)[C@H](Cc4ccccc4)NC(=O)[C@H](CO)NC(=O)[C@H](CC(C)C)NC(=O)[C@H](CCCNC(=N)N)NC(=O)[C@H](CO)NC(=O)[C@H](CCCCN)NC(=O)[C@H](CCSC)NC(=O)[C@H](CO)NC(=O)[C@H](Cc4c[nH]cn4)NC(=O)[C@H](CCCCN)NC3=O)C(=O)N[C@@H](CCCNC(=N)N)C(=O)N[C@@H](CCCCN)C(=O)N[C@@H]([C@@H](C)O)C(=O)N2)NC(=O)[C@H](CCCNC(=N)N)NC(=O)[C@H](CO)NC(=O)[C@H](CCCCN)NC(=O)[C@@H]2CCCN2C(=O)[C@H]([C@@H](C)CC)NC(=O)[C@H]([C@@H](C)O)NC(=O)[C@H](CC(=O)O)NC1=O [Y23S],> 5000

# Target: rat brain membrane K channels (delayed rectifier, primarily Kv1.2) (rat) (UniProt P63142)
# Assay: 125I-DTX displacement, rat brain membranes
# Settings: not given
Compound,IC50 ratio (analog IC50/ShK IC50),free energy difference of binding [kcal/mol]
ShK K9A (peptide),1.3,0.15
ShK P8A (peptide),1.9,0.38
ShK I7A (peptide),5.2,0.96
ShK R1A (peptide),1.5,0.23

# Target: Kv1.3 potassium channels in Jurkat T lymphocytes (Homo sapiens, UniProt P22001)
# Sequence (P22001 whole entry): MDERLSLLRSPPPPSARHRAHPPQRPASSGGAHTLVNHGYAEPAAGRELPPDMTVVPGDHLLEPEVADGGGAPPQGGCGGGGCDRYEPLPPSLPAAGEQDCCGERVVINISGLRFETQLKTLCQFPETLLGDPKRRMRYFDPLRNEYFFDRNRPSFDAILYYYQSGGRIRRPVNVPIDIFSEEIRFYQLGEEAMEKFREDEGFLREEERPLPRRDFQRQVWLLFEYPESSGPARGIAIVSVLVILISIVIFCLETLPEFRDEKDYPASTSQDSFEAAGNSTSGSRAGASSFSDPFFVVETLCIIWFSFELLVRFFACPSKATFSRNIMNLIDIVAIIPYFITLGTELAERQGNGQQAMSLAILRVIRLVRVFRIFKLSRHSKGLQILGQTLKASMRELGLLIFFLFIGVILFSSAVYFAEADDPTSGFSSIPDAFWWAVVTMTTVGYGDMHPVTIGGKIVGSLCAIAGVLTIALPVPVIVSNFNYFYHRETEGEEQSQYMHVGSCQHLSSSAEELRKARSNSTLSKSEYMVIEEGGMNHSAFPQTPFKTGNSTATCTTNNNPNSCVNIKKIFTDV
# Assay: not given
# Assay type: cell-based
# Settings: not given
Compound,Equipotent Molar Ration (Analog IC50 /ShK IC50) Lymphocyte,reduction of affinity (IC50) for Kv1.3 relative to ShK toxin [fold]
CC[C@H](C)[C@@H]1NC(=O)[C@@H](NC(=O)[C@H](CO)NC(=O)[C@@H](N)CCCNC(=N)N)CSSC[C@@H](C(=O)O)NC(=O)[C@H]([C@@H](C)O)NC(=O)CNC(=O)[C@@H]2CSSC[C@@H]3NC(=O)[C@H](CCC(N)=O)NC(=O)[C@H](Cc4ccccc4)NC(=O)[C@H](C)NC(=O)[C@H]([C@@H](C)O)NC(=O)[C@H](CSSC[C@H](NC(=O)[C@H](Cc4ccccc4)NC(=O)[C@H](CO)NC(=O)[C@H](CC(C)C)NC(=O)[C@H](CCCNC(=N)N)NC(=O)[C@H](Cc4ccc(O)cc4)NC(=O)[C@H](CCCNC(=N)N)NC(=O)[C@H](CCSC)NC(=O)[C@H](CO)NC(=O)[C@H](Cc4c[nH]cn4)NC(=O)[C@H](CCCCN)NC3=O)C(=O)N[C@@H](CCCNC(=N)N)C(=O)N[C@@H](CCCCN)C(=O)N[C@@H]([C@@H](C)O)C(=O)N2)NC(=O)[C@H](CCCNC(=N)N)NC(=O)[C@H](CO)NC(=O)[C@H](CCCCN)NC(=O)[C@@H]2CCCN2C(=O)[C@H]([C@@H](C)CC)NC(=O)[C@H]([C@@H](C)O)NC(=O)[C@H](CC(=O)O)NC1=O [K22R],225,> 225
